Common to all, as to format: in vivo
In assay [1] the test system is rat middle cerebral artery distal obstruction cerebral ischemia model. Put plainly: dMCAO cerebral ischemia: neurologic function score. As for the experimental part:
Using rat middle cerebral artery distal obstruction cerebral ischemia model. (1) according to rat weight, 10% chloral hydrate (3 ml/kg) was peritoneally injected to anaesthetize. […]
3.3.1 the neurologic function score of the animal in conscious were scored for the rat behaviour according to the Neurological Defects 4 Score in 5 Grade Method by Longa E Z et al ^[4] : 0 point: no significant neurologic function impairment; 1 point: unable to stretch forelimbs on opposite sides; 2 point: rolling to the opposite side when walking; 3 point: duping to the opposite side when walking; 4 point: unable to spontaneously walk, and loss of consciousness.

For assay [2], the system named is IL-1β mRNA in mouse renal cortex. Briefly: kidney ischemia reperfusion: real time quantitative PCR of IL-1β. To be noted: vs IR group; HEA 5, 7.5, 10 mg/kg; DPCPX 1 mg/kg; DPCPX 1 mg/kg+HEA. How it is done:
Male C57BL/6 mice 20-25 g, after one week of adaptive feeding to the animals, were randomly divided into eight groups: sham-operation group, IR group, HEA 5 mg/kg group, HEA 7 mg/kg group, HEA 10 mg/kg group, DPCPX (1 mg/kg) group, DPCPX (1 mg/kg)+HEA (5 mg/kg) group and DPCPX (1 mg/kg)+HEA (7.5 mg/kg) group. […]
The MPO analysis was conducted according to the specification in the kit. 9.2.6 Real time quantitative PCR analysis of gene expression of ICAM-1, TNF-α and IL-1β; the sequence of primer used in RT-PCR reaction system is as follow:
PCR amplification reaction system: IQ SYBR Green Super mix 12.5 μL, Forward primer (10 μmo/L) 1 μL, Reverse primer (10 μmol/L) 1 μL, cDNA (water was added to dilute to same level) 10.5 μL. […] The statistics and calculation of experiment results was automatically conducted fluorescence quantitative PCR analyzing software BIO-RAD CFX Manager. Target gene mRNA expression level was calculated by 2-ΔΔCt method, and standardized using the GAPDH mRNA in corresponding specimen a standard.

The test system of assay [3] is mouse kidney ischemia reperfusion. Put plainly: kidney ischemia reperfusion: kidney histopathologic examination (HE). Conditions: vs IR group, DPCPX 1 mg/kg; for renal tubulointerstitial impairment score: P<0.01, HEA 5, 7.5, 10 mg/kg, DPCPX 1 mg/kg+HEA 5 or 7.5 mg/kg; for kidney histopathological changes (HE×400): HEA groups printed as 2.5, 5, 7.5 mg/kg, DPCPX+HEA 5 or 7.5 mg/kg. How it is done:
Male C57BL/6 mice 20-25 g, after one week of adaptive feeding to the animals, were randomly divided into eight groups: sham-operation group, IR group, HEA 5 mg/kg group, HEA 7 mg/kg group, HEA 10 mg/kg group, DPCPX (1 mg/kg) group, DPCPX (1 mg/kg)+HEA (5 mg/kg) group and DPCPX (1 mg/kg)+HEA (7.5 mg/kg) group. The mouse was weighed before operation, then peritoneally injected with pentobarbital sodium 50 mg/kg to anaesthetize the mouse, abdomen was opened by ventromedial incision, blunt dissection and the kidney pedicle was sufficiently exposed, renal ischemia was induced by clapping two side kidney pedicle with non-invasive bulldog clamp, the color of kidney change from bright red to purple black immediately, determination method of success of the experiment model can refer to the methods in literature 7 and 8. At time of 30 min of ischemia the bulldog clamp was loosened, the perfuse was restored, the color of kidney changed gradually from dark red to bright red, showing re perfusion was successful. The wound was stitched. The animals were freely fed water and food. In the sham-operation group, the mice only received operation of abdomen open, kidney pedicle and abdomen suture. The kidney IR mode were made for the mice in the remaining groups. In each drug group, before 15 minute of ischemia, the drug with corresponding concentration was speritoneally injected, in drug combination group, 15 minutes before ischemia, the drugs were given simultaneously. At 24 hours after reperfusion, the mouse was anaesthetized again, the kidney specimen was obtained. The kidney specimen is fixed by 10% formaldehyde solution, paraffin embedded, sectioned, hematoxylin-eosin staining (HE), and the kidney histopathological change was observed under optical microscope.

The test system is the same in assay [4]. Put plainly: kidney ischemia reperfusion: apoptosis by TUNEL method. Conditions: vs IR group, DPCPX 1 mg/kg; for renal tubular epithelial cell apoptosis number (TUNEL×400): HEA treated group, DPCPX+HEA. How it is done: Male C57BL/6 mice 20-25 g, after one week of adaptive feeding to the animals, were randomly divided into eight groups: sham-operation group, IR group, HEA 5 mg/kg group, HEA 7 mg/kg group, HEA 10 mg/kg group, DPCPX (1 mg/kg) group, DPCPX (1 mg/kg)+HEA (5 mg/kg) group and DPCPX (1 mg/kg)+HEA (7.5 mg/kg) group.
The mouse was weighed before operation, then peritoneally injected with pentobarbital sodium 50 mg/kg to anaesthetize the mouse, abdomen was opened by ventromedial incision, blunt dissection and the kidney pedicle was sufficiently exposed, renal ischemia was induced by clapping two side kidney pedicle with non-invasive bulldog clamp, the color of kidney change from bright red to purple black immediately, determination method of success of the experiment model can refer to the methods in literature 7 and 8. At time of 30 min of ischemia the bulldog clamp was loosened, the perfuse was restored, the color of kidney changed gradually from dark red to bright red, showing re perfusion was successful. The wound was stitched. The animals were freely fed water and food.
In the sham-operation group, the mice only received operation of abdomen open, kidney pedicle and abdomen suture. The kidney IR mode were made for the mice in the remaining groups. In each drug group, before 15 minute of ischemia, the drug with corresponding concentration was speritoneally injected, in drug combination group, 15 minutes before ischemia, the drugs were given simultaneously.
Fetching a part of the stored kidney tissue, conventional paraffin embedded 4 μm of section. Operate according to the method of the specification in kit. […] Randomly selecting 10 400-fold visual fields, calculate apoptosis index AI %=positive cell number/total number of all cell in the visual field×100%.

Structures are written as SMILES. “Also recorded” adds a separate entry of the source.

With `CCCn1c(=O)c2[nH]c(C3CCCC3)nc2n(CCC)c1=O` [DPCPX, reference compound], the “antagonism of the protective effects of HEA in dMCAO” value in assay [1] (HEA 7.5 mg/kg + DPCPX 1 mg/kg ip, all dMCAO readouts) was “may be antagonized”. Besides, the “IL-1β mRNA expression in renal cortex” value in assay [2] was “significantly increase”. In assay [3], the “renal tubulointerstitial impairment score” value was “significantly increase renal tubulointerstitial impairment scores” and the “kidney histopathological changes (HE×400)” value is “aggravate tissue necrosis”. Moreover, the “renal tubular epithelial cell apoptosis number (TUNEL×400)” value in assay [4] is listed as “significantly increased”.
`OCCNc1ncnc2c1ncn2[C@@H]1O[C@H](CO)[C@@H](O)[C@H]1O` [HEA, N(6)-(2-hydroxyethyl)-adenosine]: the neurologic function score result in assay [1] (dMCAO rat, HEA 5, 7.5, 12 mg/kg ip (7.5 mg/kg) 30 min before operation, vs model group) is reported as “significantly improve neurological symptom of dMCAO rat; also recorded: significantly improve neurological function of the injured brain”. In addition, the “IL-1β mRNA expression in renal cortex” value in assay [2] is recorded as “significantly reduce the high expression”. Also, in assay [3], the “renal tubulointerstitial impairment score” value is recorded as “significantly reduced” and the “kidney histopathological changes (HE×400)” value is recorded as “significantly reduced compared with IR group”. The TUNEL apoptosis index entry in assay [4] (P<0.01, HEA 5, 7.5, 10 mg/kg, DPCPX 1 mg/kg+HEA 5 or 7.5 mg/kg) is “significantly less than IR group”. The “renal tubular epithelial cell apoptosis number (TUNEL×400)” value in assay [4] is recorded as “apoptosis number is reduced”.

(Values after US10479814B2, “Adenosine receptor activation reagent and the uses of thereof” (Zhejiang Subtropical Crops Research Institute, priority 2014, dated 2019).)
